Patent publication US10287267B2, “Isoquinolin-3-yl carboxamides and preparation and use thereof” (Samumed, LLC, priority 2016, dated 2019)
Read-outs that look alike come from different tables or passages of the source.

Key:
[1] = tested on: Wnt pathway (Sp5-Luc reporter, TCF/LEF binding sites) in SW480 colon carcinoma cells; assay: Screening assay for Wnt activity: Sp5-Luc reporter gene assay; type: cell-based, human; details: Homo sapiens; for EC50: Sp5-Luc reporter, SW480 cells, 36 to 48 hours; for inhibition at 10 µM: SW480, read-out: percent inhibition at 10 μM;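 on all read-outs here: firefly luciferase luminescence read in stably transduced SW480 cells carrying the Sp5 promoter reporter with eight TCF/LEF sites, compounds given in 0.1% DMSO final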
Method: The screening assay for Wnt activity is described as follows.
Following incubation, 15 μl of BriteLite Plus luminescence reagent (Perkin Elmer) was added to each well of the 384-well assay plates. The plates were placed on an orbital shaker for 2 min and then luminescence was quantified using the Envision (Perkin Elmer) plate reader.

[2] = biological target: recombinant DYRK1A kinase (Homo sapiens (Human), UniProt Q13627); assay: DYRK1A kinase assay (Ser/Thr 18 peptide Z-lyte FRET); type: biochemical; details: 30 μM ATP, 1 h room temperature;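 further: Read-out is the coumarin to fluorescein emission ratio, referenced to unphosphorylated (0%) and phosphorylated (100%) Ser/Thr 18 peptide controls, values from dose-response curves by non-linear regression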
[3] = biological target: recombinant GSK3β kinase (Homo sapiens (Human), UniProt P49841); assay: GSK3β kinase assay (Ser/Thr 09 peptide Z-lyte FRET); type: biochemical; details: 46 μM ATP, 1 h room temperature;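 further: kinase activity read as coumarin to fluorescein emission ratio, 11-point threefold dilutions from 10 µM to 0.0003 µM in duplicate, unphosphorylated and phosphorylated peptide as 0% and 100% controls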
[4] = tested on: Tau phosphorylation at Ser396 (pSer396); assay: Tau phosphorylation assay (pSer396 ELISA / western blot) in SH-SY5Y cells; type: cell-based, human; details: Homo sapiens, read-out: pSer396 Tau EC50;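 further: EC50 for reduction of Tau pSer396 in lysed cells, measured by colorimetric ELISA or chemiluminescent western blot, both using the same pSer396 antibody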
[5] = tested on: SW480 colon carcinoma cells; assay: Cell viability assay (CellTiter-Glo); type: cell-based, human; details: Homo sapiens; for EC50: 96 h, SW480 cells, CellTiter-Glo, four days incubation; for inhibition at 10 µM: SW480, read-out: percent inhibition at 10 μM
[6] = tested on: α-smooth muscle actin (αSMA) positive LL29 cells; assay: Inhibition of fibrotic process: αSMA in TGF-β1 treated primary human fibroblasts from IPF patients; type: cell-based; details: Homo sapiens, Fibroblast; for EC50: 96 h, Table 8, LL29 fibroblasts from IPF patients, TGF-β1 20 ng/mL, 4 days, dose-response 10 μM to 0.94 nM; for inhibition at 10 µM: read-out: percent value in parentheses beside EC50 >10 μM;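 on all read-outs here: controls were TGF-β1 stimulated wells with DMSO vehicle (positive) and cells given DMSO alone (negative), cultured in F12 medium with 1% fetal bovine serum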
[7] = tested on: IL-6; assay: IL-6 inhibition in LPS-stimulated human peripheral blood mononuclear cells (HTRF); type: cell-based; details: Homo sapiens, PBMC; for EC50: Table 9, huPBMCs, LPS 50 ng/mL, 22 hours, dose-response starting from 10 μM; for inhibition at 10 µM: read-out: percent value in parentheses beside EC50 >10 μM;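 on all read-outs here: IL-6 detected by HTRF with an XL665- and Cryptate-labelled anti-IL-6 antibody pair, samples run in duplicate, EC50 obtained from a four-parameter Levenberg-Marquardt curve fit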
Method: After 22 hour incubation, a mixture of anti-IL6 XL665 and anti-IL-6 Cryptate diluted in reconstitution buffer (Catalog #62IL6PEC, Cisbio Inc., Bedford, Mass.) was added to each well. […] All samples were processed in duplicate. […] EC50 was determined using software generated by Dotmatics Limited (Windhill Bishops Stortford Herts, UK) using the Levenberg-Marquardt 4 parameter fitting procedure with finite different gradients.

[8] = SH-SY5Y cells, overnight (16-18 h) exposure

recombinant GSK3β kinase, sequence (P49841 whole entry): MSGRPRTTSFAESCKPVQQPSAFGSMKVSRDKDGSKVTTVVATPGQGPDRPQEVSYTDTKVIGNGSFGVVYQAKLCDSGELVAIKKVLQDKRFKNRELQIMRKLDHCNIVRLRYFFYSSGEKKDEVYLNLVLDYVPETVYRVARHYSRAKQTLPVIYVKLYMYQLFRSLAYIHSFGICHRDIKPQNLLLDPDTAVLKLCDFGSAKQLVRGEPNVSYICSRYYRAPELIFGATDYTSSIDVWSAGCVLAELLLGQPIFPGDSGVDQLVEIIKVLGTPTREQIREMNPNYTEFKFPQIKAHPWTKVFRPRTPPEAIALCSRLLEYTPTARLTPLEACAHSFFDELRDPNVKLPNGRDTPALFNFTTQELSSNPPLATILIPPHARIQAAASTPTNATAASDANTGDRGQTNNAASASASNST

SMILES: O=C(CN1CCCC1)Nc1cc2cc(-c3cnco3)ccc2cn1 [Compound 981, N-(6-(Oxazol-5-yl)isoquinolin-3-yl)-2-(pyrrolidin-1-yl)acetamide]
- EC50 [1]: 1080 nM
- EC50 [2]: 13.7 nM
- EC50 [3]: 141 nM
- EC50 [4, 8]: 1100 nM
- EC50 [5]: 546 nM
- EC50 [6]: 605 nM
- EC50 [7]: 1100 nM

SMILES: CC(C)OCC(=O)Nc1cc2cc(-c3cncn3C)ccc2cn1 [Compound 1008, 2-Isopropoxy-N-(6-(1-methyl-1H-imidazol-5-yl)isoquinolin-3-yl)acetamide]
- EC50 [1]: 3350 nM
- EC50 [2]: 7.5 nM
- EC50 [3]: 91 nM
- EC50 [4, 8]: 643 nM
- EC50 [5]: > 10000 nM
- inhibition at 10 µM [5]: 37.2%
- EC50 [6]: 318 nM
- EC50 [7]: 7590 nM

SMILES: CC(C)CN1CCC(F)(C(=O)Nc2cc3cc(-c4nncn4C)ccc3cn2)CC1 [Compound 280, 4-Fluoro-1-isobutyl-N-(6-(4-methyl-4H-1,2,4-triazol-3-yl)isoquinolin-3-yl) piperidine-4-carboxamide]
- EC50 [1]: 2320 nM
- EC50 [2]: 10.8 nM
- EC50 [3]: 185 nM
- EC50 [4, 8]: 677 nM
- EC50 [5]: 9570 nM
- EC50 [6]: 909 nM
- inhibition at 10 µM [7]: 11.6%
- EC50 [7]: > 10000 nM

SMILES: O=C(Nc1cc2cc(-c3cncs3)ccc2cn1)C1CNC1 [Compound 713, N-(6-(Thiazol-5-yl)isoquinolin-3-yl)azetidine-3-carboxamide]
- EC50 [1]: 9250 nM
- EC50 [2]: 3.1 nM
- EC50 [3]: 98 nM
- EC50 [4, 8]: 5000 nM
- EC50 [5]: 6980 nM
- EC50 [6]: > 10000 nM
- inhibition at 10 µM [6]: 37.6%
- EC50 [7]: 3630 nM

SMILES: Cn1cc(-c2ccc3cnc(NC(=O)C4CCN(C(=O)c5ccccc5)CC4)cc3c2)cn1 [Compound 328, 1-Benzoyl-N-(6-(1-methyl-1H-pyrazol-4-yl)isoquinolin-3-yl)piperidine-4-carboxamide]
- EC50 [1]: 804 nM
- EC50 [2]: 1.9 nM
- EC50 [3]: 16 nM
- EC50 [4, 8]: 231 nM
- EC50 [5]: 929 nM
- EC50 [6]: > 10000 nM
- inhibition at 10 µM [6]: 34.5%
- EC50 [7]: 398 nM

SMILES: Cn1cc(-c2ccc3cnc(NC(=O)C4CNC4)cc3c2)cn1 [Compound 16, N-(6-(1-Methyl-1H-pyrazol-4-yl)isoquinolin-3-yl)azetidine-3-carboxamide]
- EC50 [1]: > 10000 nM
- EC50 [2]: 3.9 nM
- EC50 [3]: 24 nM
- EC50 [4, 8]: > 10000 nM
- EC50 [5]: 7840 nM
- EC50 [6]: 1270 nM
- EC50 [7]: 2170 nM

SMILES: O=C(Nc1cc2cc(-c3cnn4c3CN(CCF)CC4)ccc2cn1)C1CCNCC1 [Compound 1022, N-(6-(5-(2-Fluoroethyl)-4,5,6,7-tetrahydropyrazolo[1,5-a]pyrazin-3-yl)isoquinolin-3-yl)piperidine-4-carboxamide]
- EC50 [1]: 1370 nM
- EC50 [2]: 4.2 nM
- EC50 [3]: 124 nM
- EC50 [4, 8]: 9600 nM
- EC50 [5]: 3340 nM
- EC50 [6]: 222 nM
- EC50 [7]: 3290 nM

SMILES: Cn1cncc1-c1ccc2cnc(NC(=O)[C@H]3CC[C@H](CO)CC3)cc2c1 [Compound 531, trans-4-(Hydroxymethyl)-N-(6-(1-methyl-1H-imidazol-5-yl)isoquinolin-3-yl)cyclohexane-1-carboxamide]
- EC50 [1]: 1060 nM
- EC50 [2]: 0.9 nM
- EC50 [3]: 50 nM
- EC50 [4, 8]: 146 nM
- EC50 [5]: 989 nM
- EC50 [6]: 153 nM
- EC50 [7]: 698 nM

SMILES: Cc1ncc(-c2ccc3cnc(NC(=O)CN4CCN(C)CC4)cc3c2)s1 [Compound 995, 2-(4-Methylpiperazin-1-yl)-N-(6-(2-methylthiazol-5-yl)isoquinolin-3-yl) acetamide]
- inhibition at 10 µM [1]: 43.8%
- EC50 [1]: > 10000 nM
- EC50 [2]: 13.3 nM
- EC50 [3]: 177 nM
- EC50 [4, 8]: 2400 nM
- EC50 [5]: > 10000 nM
- inhibition at 10 µM [5]: 47.6%
- EC50 [6]: 1250 nM
- EC50 [7]: 8930 nM

SMILES: C[C@H]1CCCN1CC(=O)Nc1cc2cc(-c3cnn(C)c3)ccc2cn1 [Compound 290, (S)—N-(6-(1-Methyl-1H-pyrazol-4-yl)isoquinolin-3-yl)-2-(2-methylpyrrolidin-1-yl)acetamide]
- EC50 [1]: 5230 nM
- EC50 [2]: 5.8 nM
- EC50 [3]: 75 nM
- EC50 [4, 8]: 490 nM
- EC50 [5]: 3780 nM
- EC50 [6]: 1060 nM
- EC50 [7]: 4780 nM

SMILES: Cn1cc(-c2ccc3cnc(NC(=O)C4CCC(F)(F)CC4)cc3c2)cn1 [Compound 3, 4,4-Difluoro-N-(6-(1-methyl-1H-pyrazol-4-yl)isoquinolin-3-yl) cyclohexanecarboxamide]
- EC50 [1]: 1700 nM
- EC50 [2]: 3.7 nM
- EC50 [3]: 38 nM
- EC50 [4, 8]: 288 nM
- EC50 [5]: 2800 nM
- EC50 [6]: 103 nM
- EC50 [7]: 792 nM

SMILES: CC(C)CN1CCN(CC(=O)Nc2cc3cc(-c4cnn(C)c4)ccc3cn2)CC1 [Compound 272, 2-(4-Isobutylpiperazin-1-yl)-N-[6-(1-methylpyrazol-4-yl)-3-isoquinolyl]acetamide]
- EC50 [1]: 3750 nM
- EC50 [2]: 14 nM
- EC50 [3]: 105 nM
- EC50 [4, 8]: 1660 nM
- EC50 [5]: 5870 nM
- EC50 [6]: 2540 nM
- EC50 [7]: 3100 nM

SMILES: O=C(Nc1cc2cc(-c3cncs3)ccc2cn1)[C@H]1CC[C@H](CN2CC(F)C2)CC1 [Compound 711, trans-4-((3-Fluoroazetidin-1-yl)methyl)-N-(6-(thiazol-5-yl)isoquinolin-3-yl)cyclohexane-1-carboxamide]
- EC50 [1]: 703 nM
- EC50 [2]: 1 nM
- EC50 [3]: 67 nM
- EC50 [4, 8]: 443 nM
- EC50 [5]: 706 nM
- EC50 [6]: 540 nM
- EC50 [7]: 1080 nM

SMILES: O=C(Nc1cc2cc(-c3cnco3)ccc2cn1)[C@H]1CCCO1 [Compound 974, (R)—N-(6-(Oxazol-5-yl)isoquinolin-3-yl)tetrahydrofuran-2-carboxamide]
- EC50 [1]: 3740 nM
- EC50 [2]: 13.5 nM
- EC50 [3]: 96 nM
- EC50 [4, 8]: 2000 nM
- EC50 [5]: 3160 nM
- EC50 [6]: > 10000 nM
- inhibition at 10 µM [6]: 49.6%
- inhibition at 10 µM [7]: 45.9%
- EC50 [7]: > 10000 nM

SMILES: O=C(Nc1cc2cc(-c3cnc4n3CCNC4)ccc2cn1)C1CC1 [Compound 265, N-(6-(5,6,7,8-Tetrahydroimidazo[1,2-a]pyrazin-3-yl)isoquinolin-3-yl) cyclopropanecarboxamide]
- EC50 [1]: 1240 nM
- EC50 [2]: 3.7 nM
- EC50 [3]: 7 nM
- EC50 [4, 8]: 656 nM
- EC50 [5]: 4350 nM
- EC50 [6]: 2560 nM
- EC50 [7]: 3000 nM

SMILES: CO[C@H]1CC[C@H](C(=O)Nc2cc3cc(-c4cnn(C)c4)ccc3cn2)CC1 [Compound 4, trans-4-Methoxy-N-(6-(1-methyl-1H-pyrazol-4-yl)isoquinolin-3-yl) cyclohexane-1-carboxamide]
- EC50 [1]: 983 nM
- EC50 [2]: 1.8 nM
- EC50 [3]: 80 nM
- EC50 [4, 8]: 671 nM
- EC50 [5]: 1940 nM
- EC50 [6]: 68 nM
- EC50 [7]: 1130 nM

SMILES: C[C@H]1CN(CC(=O)Nc2cc3cc(-c4cnn(C)c4)ccc3cn2)CCO1 [Compound 343, (S)—N-(6-(1-Methyl-1H-pyrazol-4-yl)isoquinolin-3-yl)-2-(2-methylmorpholino)acetamide]
- EC50 [1]: 3590 nM
- EC50 [2]: 9.9 nM
- EC50 [3]: 71 nM
- EC50 [4, 8]: 2400 nM
- EC50 [5]: 7890 nM
- EC50 [6]: 446 nM
- inhibition at 10 µM [7]: 47.4%
- EC50 [7]: > 10000 nM

SMILES: O=C(Nc1cc2cc(-c3cnco3)ccc2cn1)[C@H]1CC[C@@H](N2CCOCC2)CC1 [Compound 979, cis-4-Morpholino-N-(6-(oxazol-5-yl)isoquinolin-3-yl)cyclohexane-1-carboxamide]
- EC50 [1]: 4090 nM
- EC50 [2]: 10 nM
- EC50 [3]: 791 nM
- EC50 [4, 8]: 569 nM
- EC50 [5]: 2220 nM
- EC50 [6]: 1030 nM
- EC50 [7]: 4300 nM

SMILES: CCN1CCC(F)(C(=O)Nc2cc3cc(-c4cn(C)nn4)ccc3cn2)CC1 [Compound 282, 1-Ethyl-4-fluoro-N-(6-(1-methyl-1H-1,2,3-triazol-4-yl)isoquinolin-3-yl) piperidine-4-carboxamide]
- inhibition at 10 µM [1]: 49.3%
- EC50 [1]: > 10000 nM
- EC50 [2]: 11.5 nM
- EC50 [3]: 134 nM
- EC50 [4, 8]: 973 nM
- EC50 [5]: 6610 nM
- EC50 [6]: 1940 nM
- inhibition at 10 µM [7]: 2.4%
- EC50 [7]: > 10000 nM

SMILES: Cn1cc(-c2ccc3cnc(NC(=O)C4C(C)(C)C4(C)C)cc3c2)nn1 [Compound 277, 2,2,3,3-Tetramethyl-N-(6-(1-methyl-1H-1,2,3-triazol-4-yl)isoquinolin-3-yl) cyclopropane-1-carboxamide]
- EC50 [1]: 5260 nM
- EC50 [2]: 2.3 nM
- EC50 [3]: 104 nM
- EC50 ([4]; SH-SY5Y): 1080 nM
- EC50 [5]: 1400 nM
- EC50 [6]: 245 nM
- inhibition at 10 µM [7]: 4%
- EC50 [7]: > 10000 nM

SMILES: Cc1nnc(-c2cc(F)c3cnc(NC(=O)CN4CCOCC4)cc3c2)s1 [Compound 963, N-(8-Fluoro-6-(5-methyl-1,3,4-thiadiazol-2-yl)isoquinolin-3-yl)-2-morpholinoacetamide]
- EC50 [1]: 1200 nM
- EC50 [2]: 26.7 nM
- EC50 [3]: 6 nM
- EC50 [4, 8]: 252 nM
- EC50 [5]: > 10000 nM
- inhibition at 10 µM [5]: 49.2%
- EC50 [6]: 1190 nM
- inhibition at 10 µM [7]: 8.2%
- EC50 [7]: > 10000 nM
